We go through one substance from article doi:10.1101/2020.07.11.198341v1 (bioRxiv, 2020).

The experiment relates to male C57Bl6J mice. Kind of experiment: Metabolic efficiency. The experiment is classed as in vivo. As to conditions: insulin 20 nmol/kg daily i.p., n=8.

As for insulin, the nocturnal chow intake entry was “slight decrease”.
